Where two headings read alike, the source gives them in different places.
Tests used:
Type in all cases: cell-based, human
[1] = tested on: IL-10-induced JAK1/TYK2 signal pathway; assay: IL-10-induced JAK1/TYK2 signal pathway STAT3-Luc reporter gene assay in U2OS cells; details: U2OS cells, STAT3-Luc reporter, IL-10 10 ng/mL, read-out: Half inhibition dose (IC50) on IL-10-induced JAK1/TYK2 signal pathway
Source text: Cytokine IL-10 is one of the main members of IL-10 family. The receptor that cytokine IL-10 binds to consists of two kinds of subunits, i.e., IL-10R1 and IL-10R2, which respectively couple with JAK1 and TYK2. After the coupling of IL-10 with its receptor, interaction of phosphorylation occurs between JAK1 and TYK2 to form STAT3 docking site for phosphorylation of STAT3. The phosphorylated STAT3 enters the nucleus and drives the transcription and expression of downstream genes.
The reporter gene plasmid STAT3-Luc Reporter used in the present invention has luciferase expression sequence as the reporter gene, upstream of which is a promoter sequence containing multiple STAT3 binding sites. When phosphorylated STAT3 induced by IL-10 signal pathway binds to the promoter of STAT3-Luc Reporter plasmid, luciferase is transcribed and expressed. The excitation fluorescence catalyzed by Luciferase can be detected after the addition of […] substrate, whose intensity can quantitively reflect the activation level of the signal pathway.
Human osteosarcoma cell line U20S was commercially available from American Type Culture Collection (ATCC), and relevant culture conditions referred to those from ATCC. It was known that such cell line could express IL-10R2, JAK1, TYK2 and STAT3, therefore, by exogenous expression of IL-10R1 gene, a complete IL-10 signal pathway could be established. The human IL-10R1 subunit overexpression plasmid pCMV3-IL10RA-EGFP was constructed by Shanghai Genechem Co., Ltd., and capable of simultaneously expressing enhanced green fluorescent protein. In the subsequent detection and calculation, the signal of green fluorescent protein in the tested sample was used as a reference for transfection efficiency calibration of the luciferase reporter gene signal. Reporter plasmid STAT3-Luc Reporter was commercially available from Ji Man Biotech (Shanghai) Co., Ltd.
X-tremeGENE 9 DNA Transfection Reagent (Roche) was used for the transfection of plasmid DNA into cells, Cell Culture Lysis 5× reagent (Promega) and Luciferase Assay System (Promega) were used in cell lysate preparation and enzyme-substrate reaction for luciferase reporter gene detection. Green fluorescent protein signal and luciferase reporter gene signal were both detected by Tecan Spark™ 10M multimode microplate reader. The inhibition rate of the tested compound on the IL-10 signal pathway reporter gene signal and the half inhibition dose IC50 were both calculated using Microsoft Excel and GraphPad Prism 7.00 software.
U2OS cell line was inoculated in 96-well plate with flat bottom at 5000 cells per well, and cultured overnight at 37° C. and 5% CO2 followed by plasmid transfection. Following the instructions and using X-tremeGENE 9 DNA Transfection Reagent, pCMV3-IL10RA-EGFP and STAT3-Luc Reporter plasmids were co-transfected into the inoculated U2OS cells. After 24 hours of transfection, the tested compound was added respectively for a final concentration of 0, 0.1, 0.3, 1, 3, 10, 30, 100, or 300 nM. After 6 hours of culture at 37° C. and 5% CO2, IL-10 cytokine (Human IL-10 PEPROTECH 200-10-10UG) was added to each well for a final concentration of 10 ng/mL, the well in which neither compound nor cytokine was added was designated as 0% control well. The culture was continued for 24 hours before testing.
Cell lysate was prepared by using Cell Culture Lysis reagent and transferred to 96-well plate with half-well clear bottom. The green fluorescent protein signal value was detected at Ex485/Em520 using Tecan microplate reader, and recorded. After adding to each well the luciferase substrate from Luciferase Assay System, the signal value of luciferase-substrate reaction was immediately detected at 560 nm using Tecan microplate reader, and recorded.
Using Microsoft Excel software, the signal value of luciferase-substrate reaction of each well was calculated and calibrated based on the signal value of green fluorescent protein of each well. […]

[2] = tested on: IL-2-induced JAK1/JAK3 signal pathway; assay: IL-2-induced proliferation of KHYG-1 cells (JAK1/JAK3 signal); details: KHYG-1 cell proliferation, IL-2 10 ng/mL, 72 hours, read-out: Inhibition activity IC50 on IL-2-induced JAK1/JAK3 signal pathway
Procedure, shortened: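 KHYG-1 NK lymphoma cells were cultured with IL-2 and test compound at various doses for 72 h at 37 °C and 5% CO2, and proliferation was read with alamarBlue fluorescence. Inhibition was normalized to wells without compound or cytokine (0%) and IL-2 wells without compound (100%), and C50 was derived from the dose-inhibition data.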

[3] = tested on: EPO-induced JAK2 signal pathway; assay: EPO-induced proliferation of UT-7 cells (JAK2 signal); details: UT-7 cell proliferation, EPO 10 ng/mL, 72 hours, read-out: Inhibition activity IC50 on EPO-induced JAK2 signal pathway
Procedure, shortened: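 UT-7 cells (15000/well) stimulated with 10 ng/mL human recombinant EPO plus compound at final 0, 100, 1000 or 10000 nM, 72 h at 37° C., 5% CO2. Proliferation by alamarBlue fluorescence (Ex530/Em590); inhibition normalised to no-cytokine/no-compound (0) and EPO-only (100) wells, […] derived from dose-inhibition.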

Row | IC50 ([1]; Homo sapiens, U2OS) | IC50 [1] | SMILES | IC50 ([1]; Homo sapiens) | IC50 ([2]; Homo sapiens) | IC50 ([3]; Homo sapiens, UT7) | IC50 [2] | IC50 [3]
1 | – | – | CONC(=O)c1cnc(NC(=O)C2CC2)cc1Nc1cccc(-c2ncn(C)n2)c1OC [Example 69, 6-(cyclopropylcarboxamido)-N-methoxy-4-((2-methoxy-3-(1-methyl-1H-1,2,4-triazol-3-yl)phenyl)amino)-nicotinamide] | 0.00278 µM | > 10 µM | > 10 µM | – | –
2 | – | – | CONC(=O)c1cnc(NC(=O)C2CC2)cc1Nc1ccc(F)cc1N(C)S(C)(=O)=O [Example 70, 6-(cyclopropylcarboxamido)-4-((4-fluoro-2-(N-methylmethanesulfonamido)phenyl)amino)-N-methoxy nicotinamide] | 0.00244 µM | > 10 µM | > 10 µM | – | –
3 | 0.000889 µM | – | CONC(=O)c1cnc(NC(=O)C2CC2)cc1Nc1ccc(Cl)cc1N(C)S(C)(=O)=O [Example 79, 4-((4-chloro-2-(N-methylmethanesulfonamido)phenyl)amino)-6-(cyclopropylcarboxamido)-N-methoxy nicotinamide] | – | > 10 µM | > 10 µM | – | –
4 | – | 0.000961 µM | CONC(=O)c1cnc(Nc2ccc(F)cn2)cc1Nc1ccc(Cl)cc1N(C)S(C)(=O)=O [Example 80, 4-((4-chloro-2-(N-methylmethanesulfonamido)phenyl)amino)-6-((5-fluoropyridin-2-yl)amino)-N-methoxy nicotinamide] | – | – | – | > 10 µM | > 10 µM
5 | – | – | CONC(=O)c1cnc(NC(=O)C2CC2)cc1Nc1ccc(C)cc1N(C)S(C)(=O)=O [Example 81, 6-(cyclopropylcarboxamido)-N-methoxy-4-((4-methyl-2-(N-methylmethanesulfonamido)phenyl)amino)nicotinamide] | 0.0015 µM | > 10 µM | > 10 µM | – | –
6 | 0.0014 µM | – | CCONC(=O)c1cnc(NC(=O)C2CC2)cc1Nc1ccccc1N(C)S(C)(=O)=O [Example 90, 6-(cyclopropylcarboxamido)-N-ethoxy-4-((2-(N-methylmethanesulfonamido)phenyl)amino)nicotinamide] | – | > 10 µM | > 10 µM | – | –
7 | 0.279 µM | – | CP(C)(=O)c1ccccc1Nc1cc(NC(=O)C2CC2)ncc1C(N)=O [Example 93, 6-(cyclopropylcarboxamido)-4-((2-(dimethylphosphoryl)phenyl)amino)nicotinamide] | – | > 10 µM | > 10 µM | – | –
8 | 0.00228 µM | – | CCONC(=O)c1cnc(Nc2ccc(F)cn2)cc1Nc1ccc(C2CC2)cc1N(C)S(C)(=O)=O [Example 95, 4-((4-cyclopropyl-2-(N-methylmethanesulfonamido)phenyl)amino)-N-ethoxy-6-((5-fluoropyridin-2-yl)amino)nicotinamide] | – | > 10 µM | > 10 µM | – | –
9 | 0.00133 µM | – | CCONC(=O)c1cnc(NC(=O)C2CC2)cc1Nc1cc(F)c(C2CC2)cc1N(C)S(C)(=O)=O [Example 97, 6-(cyclopropylcarboxamido)-4-((4-cyclopropyl-5-fluoro-2-(N-methylmethanesulfonamido)phenyl)amino)-N-ethoxy nicotinamide] | – | > 10 µM | > 10 µM | – | –
10 | 0.017 µM | – | CNC(=O)c1cnc(Nc2ccc(F)cn2)cc1Nc1ccccc1N(C)S(C)(=O)=O [Example 100, 6-((5-fluoropyridin-2-yl)amino)-N-methyl-4-((2-(N-methylmethanesulfonamido)phenyl)amino)nicotinamide] | – | > 10 µM | > 10 µM | – | –
11 | 0.00147 µM | – | CONC(=O)c1cnc(Nc2ccc(OC)cn2)cc1Nc1ccccc1N(C)S(C)(=O)=O [Example 101] | – | > 10 µM | > 10 µM | – | –
12 | 0.000623 µM | – | CONC(=O)c1cnc(Nc2cccc(C)n2)cc1Nc1ccccc1N(C)S(C)(=O)=O [Example 102, N-methoxy-4-((2-(N-methylmethanesulfonamido)phenyl)amino)-6-((6-methylpyridin-2-yl)amino)nicotinamide] | – | > 10 µM | > 10 µM | – | –
13 | 0.00181 µM | – | CONC(=O)c1cnc(Nc2cccc(F)n2)cc1Nc1ccc(C)cc1N(C)S(C)(=O)=O [Example 106, 6-((6-fluoropyridin-2-yl)amino)-N-methoxy-4-((4-methyl-2-(N-methylmethanesulfonamido)phenyl)amino)nicotinamide] | – | > 10 µM | > 10 µM | – | –
14 | 0.00187 µM | – | CONC(=O)c1cnc(Nc2ccc(OC)cn2)cc1Nc1ccc(C)cc1N(C)S(C)(=O)=O [Example 108] | – | > 10 µM | > 10 µM | – | –
15 | 0.000733 µM | – | CONC(=O)c1cnc(Nc2cccc(F)n2)cc1Nc1ccc(C)nc1N(C)S(C)(=O)=O [Example 109, 6-((6-fluoropyridin-2-yl)amino)-N-methoxy-4-((6-methyl-2-(N-methylmethanesulfonamido)pyridin-3-yl)amino)nicotinamide] | – | > 10 µM | > 10 µM | – | –
16 | 0.00151 µM | – | CONC(=O)c1cnc(Nc2cc(C)c(F)cn2)cc1Nc1ccc(C2CC2)cc1N(C)S(C)(=O)=O [Example 110] | – | > 10 µM | > 10 µM | – | –
17 | 0.00109 µM | – | CONC(=O)c1cnc(Nc2ccc(C#N)cn2)cc1Nc1ccc(C2CC2)cc1N(C)S(C)(=O)=O [Example 111, 4-((4-cyclopropyl-2-(N-methylmethanesulfonamido)phenyl)amino)-6-((5-cyanopyridin-2-yl)amino)-N-methoxy nicotinamide] | – | > 10 µM | > 10 µM | – | –
18 | 0.000711 µM | – | CONC(=O)c1cnc(Nc2cc(C)nc(C)n2)cc1Nc1ccc(C2CC2)cc1N(C)S(C)(=O)=O [Example 112] | – | > 10 µM | > 10 µM | – | –
19 | 0.000414 µM | – | CCONC(=O)c1cnc(Nc2ccc(OC)cc2)cc1Nc1ccc(Cl)cc1N(C)S(C)(=O)=O [Example 113, 4-((4-chloro-2-(N-methylmethanesulfonamido)phenyl)amino)-N-ethoxy-6-((4-methoxyphenyl)amino)nicotinamide] | – | > 10 µM | > 10 µM | – | –
20 | 0.00032 µM | – | CCONC(=O)c1cnc(Nc2ccc(C#N)cn2)cc1Nc1ccc(Cl)cc1N(C)S(C)(=O)=O [Example 114, 4-((4-chloro-2-(N-methylmethanesulfonamido)phenyl)amino)-N-ethoxy-6-((5-cyanopyridin-2-yl)amino)nicotinamide] | – | > 10 µM | > 10 µM | – | –

Source: US20240101548A1, “HYDROXAMATE COMPOUND, PREPARATION METHOD THEREFOR AND APPLICATION THEREOF” (SHENZHEN CHIPSCREEN BIOSCIENCES CO., LTD., priority 2020, published 2024)
